# Assay results: ChEMBL document CHEMBL1136110, “2,3,4,5-tetrahydro- and 2,3,4,5,11,11a-hexahydro-1H-[1,4]diazepino[1,7-a]indoles: new templates for 5-HT(2C) agonists” (Bioorg Med Chem Lett, 2003)
# Molecular target: Serotonin 2 receptors; 5-HT2a & 5-HT2c (Homo sapiens) (UniProt P28223+P28335)
# Test: Selectivity ratio of binding affinity of 5-hydroxytryptamine 2A receptor to that of 5-hydroxytryptamine 2C receptor.
# Format: protein assay
# Sequence of Serotonin 2 receptors; 5-HT2a & 5-HT2c (Homo sapiens) (P28223 whole entry, looked up, one chain of several): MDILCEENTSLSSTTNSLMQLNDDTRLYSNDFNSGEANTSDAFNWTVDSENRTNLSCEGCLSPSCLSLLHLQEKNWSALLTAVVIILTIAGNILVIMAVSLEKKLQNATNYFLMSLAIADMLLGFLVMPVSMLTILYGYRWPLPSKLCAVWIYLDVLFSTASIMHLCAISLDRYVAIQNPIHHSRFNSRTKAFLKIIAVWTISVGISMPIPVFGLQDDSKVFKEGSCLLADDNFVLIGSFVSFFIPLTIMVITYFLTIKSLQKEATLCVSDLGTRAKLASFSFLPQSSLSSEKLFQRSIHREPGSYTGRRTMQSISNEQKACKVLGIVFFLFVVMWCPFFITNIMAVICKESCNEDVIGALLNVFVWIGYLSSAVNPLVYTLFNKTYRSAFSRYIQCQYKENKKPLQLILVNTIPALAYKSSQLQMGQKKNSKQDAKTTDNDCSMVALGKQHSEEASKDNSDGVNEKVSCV
row,SMILES,Selectivity ratio
1,O=C(c1c2n(c3ccccc13)CCNCC2)C(F)(F)F,0.7
2,Clc1cc2c(c(-c3ccccc3Cl)c1)N1CCNCCC1C2 (stereo unspecified),1.79
3,CCOc1cccc(-c2cc(Cl)cc3c2N2CCNCCC2C3)c1 (stereo unspecified),0.49
4,"CCOc1ccccc1-c1cccc2c1N1CCNCCC1C2 (single isomer, unassigned; (+))",4.45
5,NC(=O)C(=O)c1c2n(c3ccccc13)CCNCC2,2.3
6,NC(=O)c1c2n(c3ccccc13)CCNCC2,0.6
7,O=Cc1c2n(c3ccccc13)CCNCC2,2.4
8,COc1ccc(Cl)cc1-c1cc(Cl)cc2c1N1CCNCCC1C2 (stereo unspecified),0.95
9,Cc1ccccc1-c1cccc2c1N1CCNCCC1C2 (stereo in doubt; (+)),6.37
10,"CCOc1ccccc1-c1cccc2c1N1CCNCCC1C2 (single isomer, unassigned; (-))",5
11,Clc1ccc(-c2cc(Cl)cc3c2N2CCNCCC2C3)c(Cl)c1 (stereo unspecified),1.1

# Results, then the compound that gave them:
row,Selectivity ratio,SMILES
1,0.63,Fc1ccccc1-c1cc(Cl)cc2c1N1CCNCCC1C2 (stereo unspecified)
2,1.99,CCOc1ccccc1-c1cc(Cl)cc2c1N1CCNCCC1C2 (stereo in doubt)
3,3.8,c1ccc2c(c1)cc1n2CCNCC1
4,3.21,"FC(F)(F)c1ccccc1-c1cccc2c1N1CCNCCC1C2 (single isomer, unassigned; (-))"
5,1,N#Cc1c2n(c3ccccc13)CCNCC2
6,3.57,Clc1ccccc1-c1cccc2c1N1CCNCCC1C2 (stereo unspecified)
7,1.81,"FC(F)(F)c1ccccc1-c1cccc2c1N1CCNCCC1C2 (single isomer, unassigned; (+))"
8,2.05,Cc1ccccc1-c1cc(Cl)cc2c1N1CCNCCC1C2 (stereo unspecified)
9,3.63,"CCOc1ccccc1-c1cc(Cl)cc2c1N1CCNCCC1C2 (single isomer, unassigned; (+))"
10,3.45,Cc1ccccc1-c1cccc2c1N1CCNCCC1C2 (stereo in doubt; (-))
11,0.69,CCOc1ccc(-c2cc(Cl)cc3c2N2CCNCCC2C3)cc1 (stereo unspecified)
12,0.44,Clc1ccc(Cl)c(-c2cc(Cl)cc3c2N2CCNCCC2C3)c1 (stereo unspecified)
13,0.47,Fc1ccc(-c2cc(Cl)cc3c2N2CCNCCC2C3)cc1 (stereo unspecified)

# Molecular target: 5-hydroxytryptamine receptor 2A (Homo sapiens, UniProt P28223)
# Sequence (P28223 whole entry): as the sequence (P28223 whole entry, looked up, one chain of several) above
# Test: Binding affinity against 5-hydroxytryptamine 2A receptor using [125I]DOI radioligand.
row,SMILES,Ki [nM]
1,O=C(c1c2n(c3ccccc13)CCNCC2)C(F)(F)F,40
2,Clc1cc2c(c(-c3ccccc3Cl)c1)N1CCNCCC1C2 (stereo unspecified),102
3,CCOc1cccc(-c2cc(Cl)cc3c2N2CCNCCC2C3)c1 (stereo unspecified),233
4,NC(=O)C(=O)c1c2n(c3ccccc13)CCNCC2,316
5,NC(=O)c1c2n(c3ccccc13)CCNCC2,46
6,O=Cc1c2n(c3ccccc13)CCNCC2,29
7,COc1ccc(Cl)cc1-c1cc(Cl)cc2c1N1CCNCCC1C2 (stereo unspecified),756
8,Clc1ccc(-c2cc(Cl)cc3c2N2CCNCCC2C3)c(Cl)c1 (stereo unspecified),426

# Other lines, results leading:
row,Ki [nM],SMILES
1,141,Fc1ccccc1-c1cc(Cl)cc2c1N1CCNCCC1C2 (stereo unspecified)
2,18,c1ccc2c(c1)cc1n2CCNCC1
3,83,N#Cc1c2n(c3ccccc13)CCNCC2
4,82,Clc1ccccc1-c1cccc2c1N1CCNCCC1C2 (stereo unspecified)
5,88,Cc1ccccc1-c1cc(Cl)cc2c1N1CCNCCC1C2 (stereo unspecified)
6,182,CCOc1ccc(-c2cc(Cl)cc3c2N2CCNCCC2C3)cc1 (stereo unspecified)
7,70,Clc1ccc(Cl)c(-c2cc(Cl)cc3c2N2CCNCCC2C3)c1 (stereo unspecified)
8,146,Fc1ccc(-c2cc(Cl)cc3c2N2CCNCCC2C3)cc1 (stereo unspecified)

# Test system: Mus musculus
# Test: Anxiolytic activity (latency to fight) in mice after administration (3 mg/kg) using shock-induced aggression assay
# Format: functional
row,SMILES,Latency [s]
1,c1ccc2c(c1)cc1n2CCNCC1,12.8

# Test system: Mus musculus
# Test: Anxiolytic activity (latency to fight) in mice after administration (30 mg/kg) using shock-induced aggression assay
# Format: functional
row,SMILES,Latency [s]
1,c1ccc2c(c1)cc1n2CCNCC1,27

# Molecular target: T1, 5-hydroxytryptamine receptor 2C (Homo sapiens) (UniProt P28335)
# T1 sequence (whole entry): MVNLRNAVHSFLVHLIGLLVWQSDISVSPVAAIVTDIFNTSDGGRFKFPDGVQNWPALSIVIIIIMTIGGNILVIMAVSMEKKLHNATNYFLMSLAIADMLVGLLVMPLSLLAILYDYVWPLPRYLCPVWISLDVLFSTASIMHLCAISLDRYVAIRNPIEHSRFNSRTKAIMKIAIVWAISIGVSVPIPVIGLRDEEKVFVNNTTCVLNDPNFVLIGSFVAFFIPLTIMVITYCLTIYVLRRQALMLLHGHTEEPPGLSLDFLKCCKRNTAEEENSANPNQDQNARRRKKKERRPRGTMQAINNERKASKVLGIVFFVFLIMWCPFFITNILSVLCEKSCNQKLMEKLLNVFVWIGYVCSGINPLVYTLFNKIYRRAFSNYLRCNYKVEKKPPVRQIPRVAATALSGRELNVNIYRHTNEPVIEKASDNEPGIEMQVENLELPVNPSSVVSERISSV
# Test: Intrinsic efficacy against 5-hydroxytryptamine 2C receptor
row,Intrinsic efficacy [%],SMILES
1,80,c1ccc2c(c1)cc1n2CCNCC1

# Molecular target: T2, 5-hydroxytryptamine receptor 2C (Homo sapiens, UniProt P28335)
# T2 sequence (P28335 whole entry): T1 sequence (whole entry)
# Test: Binding affinity against 5-hydroxytryptamine 2C receptor using [125I]DOI radioligand.
row,SMILES,Ki [nM]
1,O=C(c1c2n(c3ccccc13)CCNCC2)C(F)(F)F,54
2,Clc1cc2c(c(-c3ccccc3Cl)c1)N1CCNCCC1C2 (stereo unspecified),57
3,CCOc1cccc(-c2cc(Cl)cc3c2N2CCNCCC2C3)c1 (stereo unspecified),472
4,NC(=O)C(=O)c1c2n(c3ccccc13)CCNCC2,136
5,NC(=O)c1c2n(c3ccccc13)CCNCC2,74
6,O=Cc1c2n(c3ccccc13)CCNCC2,12
7,COc1ccc(Cl)cc1-c1cc(Cl)cc2c1N1CCNCCC1C2 (stereo unspecified),793
8,Clc1ccc(-c2cc(Cl)cc3c2N2CCNCCC2C3)c(Cl)c1 (stereo unspecified),386

# Continued, values first:
row,Ki [nM],SMILES
1,223,Fc1ccccc1-c1cc(Cl)cc2c1N1CCNCCC1C2 (stereo unspecified)
2,4.8,c1ccc2c(c1)cc1n2CCNCC1
3,85,N#Cc1c2n(c3ccccc13)CCNCC2
4,23,Clc1ccccc1-c1cccc2c1N1CCNCCC1C2 (stereo unspecified)
5,43,Cc1ccccc1-c1cc(Cl)cc2c1N1CCNCCC1C2 (stereo unspecified)
6,265,CCOc1ccc(-c2cc(Cl)cc3c2N2CCNCCC2C3)cc1 (stereo unspecified)
7,160,Clc1ccc(Cl)c(-c2cc(Cl)cc3c2N2CCNCCC2C3)c1 (stereo unspecified)
8,310,Fc1ccc(-c2cc(Cl)cc3c2N2CCNCCC2C3)cc1 (stereo unspecified)

# Test system: Mus musculus
# Test: Ataxia (time on rotaing rod) in mice after administration (3 mg/kg) using standard Rotarod assay
# Format: functional
row,SMILES,Latency [s]
1,c1ccc2c(c1)cc1n2CCNCC1,102

# Test system: Mus musculus
# Test: Ataxia (time on rotaing rod) in mice after administration (30 mg/kg) using standard Rotarod assay
# Format: functional
row,SMILES,Latency [s]
1,c1ccc2c(c1)cc1n2CCNCC1,87.6
